Here are results for two compounds from the NIST ThermoML archive (doi:10.1021/je500448j).

For this data set the following is noted: 298.15 K; 101.33 kPa; Liquid; Vibrating tube method.

Numbers after ± are expanded uncertainties.

As to `CN(C)c1ccccc1` [N,N-dimethylaniline], the mass density (usually the mass of a sample divided by its volume) stood at 952.05 ± 0.23 kg/m3.

`Nc1ccccc1` [aniline]: the mass density was determined as 1017.39 ± 0.09 kg/m3.
